Test results: US11590185B2, “Antioxidant composition comprising Sargassum serratifolium extract or fraction thereof as active ingredient” (PUKYONG NATIONAL UNIVERSITY INDUSTRY-UNIVERSITY COOPERATION …, priority 2015, dated 2023)

How the values were obtained:
[1] = DPPH radical scavenging activity; format: biochemical; conditions: DPPH 200 μM, 30 minutes, 517 nm
Procedure: For the measurement, 100 μl DPPH having a concentration of 200 μM and 100 μl the sample were mixed in a 96-well plate, and they reacted at room temperature for about 30 minutes. Then, the absorbance thereof was measured at 517 nm using a microplate reader. BHT was used as a positive control. The concentration was compared at the same as that of the sample.
DPPH radical scavenging activity was calculated by the method as described below. Radical scavenging activity (%)=(ADPPH−Asample)/ADPPH×100
For the measurement, 100 μl DPPH having a concentration of 200 μM and 100 μl the sample were mixed in a 96-well plate, and they reacted at room temperature for about 30 minutes. Then, the absorbance thereof was measured at 517 nm using a microplate reader. BHT was used as a positive control. The concentration thereof was compared to the same as that of the sample.
DPPH radical scavenging activity was calculated by the method as described below.

[2] = ABTs assay (ABTs cation scavenging); format: biochemical; conditions: 6 minutes, 732 nm
Procedure: The ABTs assay is similar to the DPPH assay but differs in that antioxidative activity is measured by generating free radicals through chemical reactions. ABTs are reacted with potassium persulfate to generate ABTs […] radicals, which react with H-donors such as phenolic compounds to be converted to colorless ABTs. Accordingly, the degree of antioxidative activity may be determined by measuring the amount of ABTs consumed by reacting with a sample containing a phenolic compound.
ABTs antioxidative activity was measured by partially modified Van den Berg (1999) and others using the discoloration of ABTs radical-specific green color by antioxidants.
(§1) Potassium persulfate was added to 7 mM ABTs solution at a final concentration of 2.4 mM. They reacted in the dark for 12 hours to 16 hours at R/T so as to produce ABTs cations. The resulting ABTs cation was diluted to be used, having an absorbance value of 0.7±0.02. […] The absorbance thereof was measured at 732 nm. The radical scavenging activity was calculated from the measured values as follows. […]
as §1, with “mM ABTS” for “mM ABTs”, “mM. […]” for “mM. They reacted in the dark for 12 hours to 16 hours at R/T so as to produce ABTs cations.”

[3] = Hydroxyl radical scavenging (deoxyribose test); format: biochemical; conditions: 37° C. 1 hour, 532 nm
Procedure: Hydroxyl radicals (—OH) are the most reactive radicals among oxygen radicals, which occur during aerobic metabolism in the human body. These radicals damage peripheral cells to create collateral living body molecules. A deoxyribose test was performed so as to measure the ability to scavenge hydroxyl radicals. Hydroxyl radicals attack deoxyribose to create small fragments. Some of which are pink when added with TBA (thiobarbituric acid) under an acidic pH environment, so the degree of damage by hydroxyl radicals is measured by absorbance at 532 nm.
Experimental methods described in Chandini, Ganesan, and Bhaskar (Chandini, S. K., Ganesan, p., and Bhaskar, N. (2008) In vitro antioxidant activities of three selected brown seaweeds of India. Food Chemistry, 107, 707-713) were modified to be used. […] 1 ml the sample to be measured was mixed with the working solution, and 0.1 ml ascorbic acid (1 mM) is added to form Fe2+−EDTA mixture which is an […] of ferric chloride (FeCl3) and ethylenediamine tetraacetic acid (EDTA). […] The absorbance thereof was measured. […]
Experimental methods described in Chandini, Ganesan, and Bhaskar (Chandini, S. K., Ganesan, p., and Bhaskar, N. (2008) In vitro antioxidant activities of three selected brown seaweeds of India. Food Chemistry, 107, 707-713) were modified to be used. […] The absorbance thereof was measured. […]

661W photoreceptor cells [4] = experiment: Cell viability of 661W cells under atRAL oxidative stress (MTS); format: cell-based, mouse; conditions: 24 hours; for viability at 0.5 µM: Mus musculus, 661W, 0.5 μM compound with atRAL 1.8 μM
Procedure: In detail, 661W photoreceptor cells were cultured in 96-wells at a concentration of 3×10^3 cells/well and treated with atRAL having a concentration of 1.8 μM (Sigma Aldrich, St. Louis, Mo., USA) for 24 hours. Then, the medium was replaced with medium containing MTS reagent, and they were cultured for 1 hour. The absorbance thereof was measured at 490 nm, and the results were compared to determine cell viability. The cell viability thereof was measured by Celltiter^96 Aqueous One solution assay kit (Promega).

[5] = test system: malondialdehyde (MDA) production in 661W photoreceptor cells; experiment: Malondialdehyde (MDA) denatured protein in atRAL-treated 661W cells (MDA immunoblot); format: cell-based, mouse; conditions: 2 hours; for expression level of MDA-denatured protein compared with group treated with atRAL only: sargachromenol 0.5 μM, sargahydroquinoic acid 0.5 μM or sargaquinoic acid 1.0 μM, with atRAL 1.8 μM
Procedure: For reference, the malondialdehyde (MDA) is the result of lipid peroxidation by excessive oxidative stress in cells, and thus the amount of MDA in cells is a factor to measure the degree of oxidative stress.
(§2) In detail, samples of each of Sargassum serratifolium ethanol extract and the compounds separated therefrom were mixed with a specific amount of atRAL (1.8 μM) and Sargassum serratifolium ethanol extract (0.5 μg/mL), sargachromenol (0.5 μM), sargahydroquinoic acid (0.5 μM), or sargaquinoic acid (1.0 μM). The photoreceptor cells were treated with mixtures thereof. Then, they were cultured for 2 hours. The cells were then washed with PBS and the intracellular proteins were recovered. The number of proteins denatured by the lipid peroxides in cells was analyzed by protein immunoassay using MDA immunoblot kit (Cell biolabs).
as §2, with “acid (0.5 μM) or sargaquinoic” for “acid (0.5 μM), or sargaquinoic”, “treated with mixtures. Then, they” for “treated with mixtures thereof. Then, they”

[6] = test system: reactive oxygen species in 661W photoreceptor cells; experiment: Reactive oxygen species in atRAL-treated 661W cells (DCFH-DA, flow cytometry); format: cell-based, mouse; conditions: 30 minutes
Procedure: For reference, 2′,7′-dichlorodihydrofluorescein diacetate (DCFH-DA) converts to DCF, which expresses fluorescence in response to oxidative stress in cells. Therefore, the expression of DCF in cells is used as an indicator of the degree of oxidative stress.
(§3) In order to examine the antioxidative effect of the Sargassum serratifolium ethanol extract and the compounds separated therefrom of the present invention, atRAL (1.8 μM) and Sargassum serratifolium ethanol extract (0.5 μg/mL), sargachromenol (0.5 μM), sargahydroquinoic acid (0.5 μM), or sargaquinoic acid (1.0 μM) were added to medium mixed with DCFH-DA (20 μM), and the photoreceptor cells were treated with them and cultured for 30 minutes. Then, the cells were washed with PBS, and the cells were recovered. The cells expressing the fluorescence were measured using flow cytometry.
as §3, with “acid (0.5 μM) or sargaquinoic” for “acid (0.5 μM), or sargaquinoic”

661W photoreceptor cells [7] = experiment: Cytotoxicity on 661W photoreceptor cells (MTS); format: cell-based, mouse; conditions: 661W cells, separated compounds
Procedure: (§4) 661W photoreceptor cells were cultured in 96-wells at a concentration of 3×10^3 cells/well. Then, they were treated with 1.0 μg/ml Sargassum serratifolium ethanol extract or compounds separated therefrom (sargahydroquinoic acid (SHQ), sargachromenol (SCM), and sargaquinoic acid (SQA)) at a concentration of 1.0 μM and cultured for 24 hours. Then, the medium was replaced with medium containing MTS reagent. Then, they were cultured for 1 hour. Cell viability was measured by measuring the absorbance at 490 nm and comparing the results. The cell viability thereof was analyzed by Celltiter^96 Aqueous One solution assay kit (Promega).
as §4, with “viability” for “viability thereof”

[8] = compound 0.5 μM and atRAL 1.8 μM

Structure (SMILES): Cc1cc(C(C)(C)C)c(O)c(C(C)(C)C)c1 [BHT]
- DPPH (IC50, μg/ml) [1]: 11.18 ± 0.15 µg/mL
- ABTs (IC50, μg/ml) [2]: 7.77 ± 0.74 µg/mL
- OH radical (IC50, μg/ml) [3]: 1.675 ± 0.21 µg/mL

Structure (SMILES): CC1=C(/C=C/C(C)=C/C=C/C(C)=C/C=O)C(C)(C)CCC1 [atRAL, all-trans-retinal, reference compound]
- cell viability reduced in the only atRAL-treated group (661W photoreceptor cells [4]; atRAL 1.8 μM alone): about 55%
- expression level of protein denatured by MDA compared with the control ([5]; atRAL 1.8 μM only): increased
- fluorescence expression level (DCF) higher than that of the control group ([6]; atRAL 1.8 μM only): about 80%

Structure (SMILES): CC(C)=CCC/C(=C/CC/C(C)=C/CCC1(C)C=Cc2cc(O)cc(C)c2O1)C(=O)O (stereo not drawn) [sargachromenol]
- viability at 0.5 µM (661W photoreceptor cells [4]): > 90%
- expression level of MDA-denatured protein compared with group treated with atRAL only [5]: effectively reduced
- fluorescence expression level (DCF) reduced compared to group treated with atRAL only [6, 8]: 76%
- fluorescence expression level (DCF) reduced compared to group treated with atRAL only ([6]; compound 0.5 μM and atRAL 1.8 μM, listed as SCM): ~77%

Structure (SMILES): CC(C)=CCC/C(=C/CC/C(C)=C/CC/C(C)=C/Cc1cc(O)cc(C)c1O)C(=O)O [sargahydroquinoic acid]
- viability at 0.5 µM (661W photoreceptor cells [4]): > 90%
- expression level of MDA-denatured protein compared with group treated with atRAL only [5]: effectively reduced
- fluorescence expression level (DCF) reduced compared to group treated with atRAL only [6, 8]: 77%
- fluorescence expression level (DCF) reduced compared to group treated with atRAL only ([6]; compound 0.5 μM and atRAL 1.8 μM, listed as SHQ): about 76%

Structure (SMILES): CC(C)=CCC/C(=C/CC/C(C)=C/CC/C(C)=C/CC1=CC(=O)C=C(C)C1=O)C(=O)O [sargaquinoic acid]
- viability at 0.5 µM (661W photoreceptor cells [4]): > 90%
- expression level of MDA-denatured protein compared with group treated with atRAL only [5]: effectively reduced
- fluorescence expression level (DCF) reduced compared to group treated with atRAL only ([6]; compound 1.0 μM and atRAL 1.8 μM): 73%
- concentration up to which there was no cytotoxicity (661W photoreceptor cells [7]): ≤ 1000 nM
